# Measured values: patent publication US9902736B2, “1-oxo/acylation-14-acylated oridonin derivative, preparation method therefor and application thereof” (HANGZHOU BENSHENG PHARMACEUTICAL CO., LTD., priority 2012, dated 2018)
# Legend:
# K562/ADR = experiment: Leukemia cell growth inhibition, MTT, 72 h; format: cell-based; conditions: Homo sapiens
# Text: (§1) Leukemia cell lines: leukemia cell lines: K562/adr (drug-resistant, chronic myeloid leukemia, CML), NB4 (acute promyelocytic leukemia, AML), Kasumi-1 (acute myeloid leukemia M2 type, AML-M2), Jurkat (acute lymphoblastic leukemia, ALL), all of which were donated by Cancer Research Institute of Zhejiang University, China; and H9 (acute lymphoblastic leukemia, ALL), which was purchased from China Center for Type Culture Collection.
# (§2) 6000 well-growing leukemia cells were obtained and inoculated into wells of a 96-well cell culture plate. […] On the next day, the 1-oxo/acylated-14-acylated oridonin derivatives of different concentrations were added and mixed uniformly. The plate was placed in a carbon dioxide cell incubator (5% CO2) at 37° C. and was incubated for 72 hours. Then the viable cell concentration was determined by MTT method.
# Kasumi-1 = experiment: Leukemia cell growth inhibition, MTT, 72 h; format: cell-based; conditions: Homo sapiens
# Text: as §1, §2
# RPMI 8226 = experiment: Multiple myeloma cell growth inhibition, MTT, 72 h; format: cell-based; conditions: Homo sapiens
# Description: Multiple myeloma cell lines: RPMI8226 (multiple myeloma), purchased from Fuxiang Bio-tech Co. Ltd., Shanghai, China.
# 6000 well-growing cells were obtained and inoculated into wells of a 96-well cell culture plate. […] On the next day, the 1-oxo/acylated-14-acylated oridonin derivatives of different concentrations were added and mixed uniformly. The plate was placed in a carbon dioxide cell incubator (5% CO2) at 37° C. and incubated for 72 hours. Then the viable cell concentration was determined by MTT method.
# MG-63 = experiment: Solid tumor cell growth inhibition, MTT, 72 h; format: cell-based; conditions: Homo sapiens
# Description: (§3) 6000 well-growing human solid tumor cells were obtained and inoculated into wells of a 96-well cell culture plate. The culture medium was DMEM High Glucose cell culture medium containing 10% fetal bovine serum. The plate was placed in a carbon dioxide cell incubator (5% CO2) at 37° C. and incubated for 24 hours. After added with 1-oxo/acylated-14-acylated oridonin derivatives of different concentration and mixed uniformly, the plate was placed in a carbon dioxide cell incubator (5% CO2) at 37° C. and incubated for 72 hours. Then the viable cell concentration was determined by MTT method.
# SK-OV-3 = experiment: Solid tumor cell growth inhibition, MTT, 72 h; format: cell-based; conditions: Homo sapiens, SK-OV-3, 72 h, MTT; for IC50: read-out: IC50 SK-OV-3; for IC90: read-out: IC90 SK-OV-3
# Description: as §3
# Becap-37 = experiment: Solid tumor cell growth inhibition, MTT, 72 h; format: cell-based; conditions: Homo sapiens
# Description: as §3
# A549 = experiment: Solid tumor cell growth inhibition, MTT, 72 h; format: cell-based; conditions: Homo sapiens
# Description: as §3
# Hep G2 = experiment: Solid tumor cell growth inhibition, MTT, 72 h; format: cell-based; conditions: Homo sapiens, HepG2
# Description: as §3
# PC-3 = experiment: Solid tumor cell growth inhibition, MTT, 72 h; format: cell-based; conditions: Homo sapiens
# Description: as §3
# U87-MG = experiment: Solid tumor cell growth inhibition, MTT, 72 h; format: cell-based; conditions: Homo sapiens, U-87 MG
# Description: as §3
# CaEs-17 = experiment: Solid tumor cell growth inhibition, MTT, 72 h; format: cell-based; conditions: Homo sapiens, CaEs17
# Description: as §3
# RKO = experiment: Solid tumor cell growth inhibition, MTT, 72 h; format: cell-based; conditions: Homo sapiens
# Description: as §3
# PANC-1 = experiment: Solid tumor cell growth inhibition, MTT, 72 h; format: cell-based; conditions: Homo sapiens
# Description: as §3
# Jurkat = experiment: Leukemia cell growth inhibition, MTT, 72 h; format: cell-based, human; conditions: for IC50 / IC90: Homo sapiens, Jurkat, 72 h, MTT
# Text: as §1, §2
# H9 = experiment: Leukemia cell growth inhibition, MTT, 72 h; format: cell-based, human; conditions: Homo sapiens, H9; 72 h, MTT
# Text: as §1, §2
# NB4 = experiment: Leukemia cell growth inhibition, MTT, 72 h; format: cell-based, human; conditions: Homo sapiens, NB-4; 72 h, MTT
# Text: as §1, §2
# CNE = experiment: Solid tumor cell growth inhibition, MTT, 72 h; format: cell-based, human; conditions: for IC50 / IC90: Homo sapiens, CNE, 72 h, MTT
# Description: as §3
# Hep-2 = experiment: Solid tumor cell growth inhibition, MTT, 72 h; format: cell-based, human; conditions: Homo sapiens, HEp-2; 72 h, MTT
# Description: as §3
# Hela = experiment: Solid tumor cell growth inhibition, MTT, 72 h; format: cell-based, human; conditions: Homo sapiens, HeLa; 72 h, MTT
# Description: as §3
# MGC-803 = experiment: Solid tumor cell growth inhibition, MTT, 72 h; format: cell-based, human; conditions: Homo sapiens, MGC-803; 72 h, MTT
# Description: as §3
structure (smiles),measurement,setting,value
C=C1C(=O)[C@]23[C@H](OC(=O)c4ccc(C)cc4)[C@H]1CC[C@H]2[C@@]12CO[C@@]3(O)[C@@H](O)[C@@H]1C(C)(C)CCC2=O [BS-OR-004],IC50,K562/ADR,0.41 µg/mL
same,IC90,K562/ADR,1.72 µg/mL
same,IC50,Kasumi-1,0.41 µg/mL
same,IC90,Kasumi-1,1.68 µg/mL
same,IC50,RPMI 8226,0.31 µg/mL
same,IC90,RPMI 8226,1.77 µg/mL
same,IC50,MG-63,0.33 µg/mL
same,IC90,MG-63,0.87 µg/mL
same,IC50,SK-OV-3,1.45 µg/mL
same,IC90,SK-OV-3,3.94 µg/mL
same,IC50,Becap-37,0.66 µg/mL
same,IC90,Becap-37,3.3 µg/mL
same,IC50,A549,1.71 µg/mL
same,IC90,A549,4.9 µg/mL
same,IC50,Hep G2,0.85 µg/mL
same,IC90,Hep G2,7.84 µg/mL
same,IC50,PC-3,1.45 µg/mL
same,IC90,PC-3,3.94 µg/mL
same,IC50,U87-MG,0.8 µg/mL
same,IC90,U87-MG,3.24 µg/mL
same,IC50,CaEs-17,0.88 µg/mL
same,IC90,CaEs-17,4.58 µg/mL
same,IC50,RKO,0.31 µg/mL
same,IC90,RKO,0.87 µg/mL
same,IC50,PANC-1,1.31 µg/mL
same,IC90,PANC-1,8.24 µg/mL
same,IC50,Jurkat,0.62 µg/mL
same,IC90,Jurkat,2.7 µg/mL
same,IC50,H9,0.34 µg/mL
same,IC90,H9,0.83 µg/mL
same,IC50,NB4,0.13 µg/mL
same,IC90,NB4,0.76 µg/mL
same,IC50,CNE,0.95 µg/mL
same,IC90,CNE,4.67 µg/mL
same,anti-CNE activity increased,CNE; in comparison with oridonin,~6 fold
same,IC50,Hep-2,1.38 µg/mL
same,IC90,Hep-2,6.79 µg/mL
same,IC50,Hela,1.28 µg/mL
same,IC90,Hela,3.87 µg/mL
same,IC50,MGC-803,0.65 µg/mL
same,IC90,MGC-803,4.88 µg/mL
C=C1C(=O)[C@]23[C@H](OC(=O)c4ccc(OC)cc4)[C@H]1CC[C@H]2[C@@]12CO[C@@]3(O)[C@@H](O)[C@@H]1C(C)(C)CCC2=O [BS-OR-005],IC50,K562/ADR,0.4 µg/mL
same,IC90,K562/ADR,1.44 µg/mL
same,IC50,Kasumi-1,0.43 µg/mL
same,IC90,Kasumi-1,1.05 µg/mL
same,IC50,RPMI 8226,0.26 µg/mL
same,IC90,RPMI 8226,0.96 µg/mL
same,IC50,MG-63,0.28 µg/mL
same,IC90,MG-63,0.75 µg/mL
same,IC50,SK-OV-3,1.22 µg/mL
same,IC90,SK-OV-3,3.16 µg/mL
same,IC50,Becap-37,0.7 µg/mL
same,IC90,Becap-37,2.78 µg/mL
same,IC50,A549,1.71 µg/mL
same,IC90,A549,4.31 µg/mL
same,IC50,Hep G2,0.84 µg/mL
same,IC90,Hep G2,5.27 µg/mL
same,IC50,PC-3,1.22 µg/mL
same,IC90,PC-3,3.16 µg/mL
same,IC50,U87-MG,0.7 µg/mL
same,IC90,U87-MG,2.16 µg/mL
same,IC50,CaEs-17,0.81 µg/mL
same,IC90,CaEs-17,3.03 µg/mL
same,IC50,RKO,0.31 µg/mL
same,IC90,RKO,0.84 µg/mL
same,IC50,PANC-1,1.26 µg/mL
same,IC90,PANC-1,4.91 µg/mL
same,IC50,Jurkat,0.44 µg/mL
same,IC90,Jurkat,2.88 µg/mL
same,anti-Jurkat cell line activity increased,Jurkat; as compared with oridonin,~4 fold
same,IC50,H9,0.38 µg/mL
same,IC90,H9,0.92 µg/mL
same,IC50,NB4,0.07 µg/mL
same,IC90,NB4,0.49 µg/mL
same,IC50,CNE,1.09 µg/mL
same,IC90,CNE,4.45 µg/mL
same,IC50,Hep-2,1.3 µg/mL
same,IC90,Hep-2,5.6 µg/mL
same,IC50,Hela,1.16 µg/mL
same,IC90,Hela,3.4 µg/mL
same,IC50,MGC-803,0.7 µg/mL
same,IC90,MGC-803,5.4 µg/mL
